# According to patent US20070117743A1, “New antitumoral compounds” (priority 2003, published 2007):
# Read-outs that look alike come from different tables or passages of the source.
# How the values were obtained:
# Type in all cases: cell-based, human
# [1] = tested on: A-549; assay: SRB colorimetric assay of cell growth and viability, A-549; conditions: 48 hours exposure; for GI50: read-out: GI50 A-549; for CC50: read-out: LC50 A-549
# [2] = tested on: SK-MEL-28; assay: SRB colorimetric assay of cell growth and viability, SK-MEL-28; conditions: 48 hours exposure; for CC50: read-out: LC50 MEL-28
# [3] = tested on: HT-29; assay: SRB colorimetric assay of cell growth and viability, HT-29; conditions: 48 hours exposure; for GI50: read-out: GI50 HT-29; for CC50: read-out: LC50 HT-29
# [4] = tested on: LoVo-Dox; assay: SRB colorimetric assay of cell growth and viability, LoVo-Dox; conditions: LOVO-DOX, 48 hours exposure
# Outline: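 Absorbance at 490 nm of Tris-solubilized sulforhodamine B gives the read-out after cells are fixed with cold 50% TCA for 60 min at 4° C. Compound exposure lasts 48 hours over 10 to 10^−8 μg/mL. Growth inhibition, total growth inhibition and lethal concentration are calculated from triplicate wells.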
# [5] = tested on: DU-145; assay: SRB colorimetric assay of cell growth and viability, DU-145; conditions: 48 hours exposure
# [6] = tested on: LNCaP; assay: SRB colorimetric assay of cell growth and viability, LNCaP; conditions: 48 hours exposure; for CC50: read-out: LC50 LN-caP
# [7] = tested on: SK-BR-3; assay: SRB colorimetric assay of cell growth and viability, SK-BR-3; conditions: 48 hours exposure
# [8] = tested on: IGROV-1; assay: SRB colorimetric assay of cell growth and viability, IGROV-1; conditions: 48 hours exposure
# [9] = tested on: IGROV-ET; assay: SRB colorimetric assay of cell growth and viability, IGROV-ET; conditions: 48 hours exposure; for CC50: read-out: LC50 IGROV-ET
# [10] = tested on: HeLa; assay: SRB colorimetric assay of cell growth and viability, HeLa; conditions: 48 hours exposure; for CC50: read-out: LC50 HELA
# [11] = tested on: HeLa-APL; assay: SRB colorimetric assay of cell growth and viability, HeLa-APL; conditions: 48 hours exposure; for CC50: read-out: LC50 HELA-APL
# [12] = tested on: K-562; assay: SRB colorimetric assay of cell growth and viability, K-562; conditions: 48 hours exposure; for CC50: read-out: LC50 K-562
# [13] = tested on: PANC-1; assay: SRB colorimetric assay of cell growth and viability, PANC-1; conditions: 48 hours exposure; for CC50: read-out: LC50 PANC-1
# [14] = tested on: LoVo; assay: SRB colorimetric assay of cell growth and viability, LoVo; conditions: 48 hours exposure
smiles,measurement,setting,value
"C/C=C1\NC(=O)[C@H](Cc2ccccc2)NC(=O)[C@@H](C(C)C)NC(=O)[C@@H]([C@@H](C)CC)NC(=O)[C@H](NC(=O)[C@H](NC(=O)[C@H](CCCN)NC(=O)[C@H]2CCCN2C(=O)[C@H](NC(=O)[C@@H](NC(=O)[C@@H](NC(=O)[C@@H](CCCN)NC(=O)CCCC(C)C)[C@@H](C)O)C(C)C)C(C)C)[C@@H](C)CC)[C@@H](C)OC(=O)[C@H](C(C)C)NC1=O [Compound 118, [D-Orn^13]-KF]",TGI A-549,[1]; A-549,4.21E−06 Molar
same,GI50,[1]; A-549,1960 nM
same,CC50,[1]; A-549,6.7 µM
same,GI50,[2]; MEL-28,1490 nM
same,TGI MEL-28,[2]; MEL-28,2.88E−06 Molar
same,CC50,[2]; MEL-28,5.55 µM
same,TGI HT-29,[3]; HT-29,2.84E−06 Molar
same,GI50,[3]; HT-29,1200 nM
same,CC50,[3]; HT-29,6.7 µM
same,GI50,[4],1590 nM
same,TGI LOVO-DOX,[4],3.28E−06 Molar
same,CC50,[4]; read-out: LC50 LOVO-DOX,6.7 µM
same,GI50,[5]; DU-145,1860 nM
same,LC50 (concentration causing 50% net cell kill),[5]; DU-145,6.7 µM
same,TGI DU-145,[5]; DU-145,3.84E−06 Molar
same,GI50,[6]; LN-caP,2870 nM
same,TGI LN-caP,[6]; LN-caP,6.70E−06 Molar
same,CC50,[6]; LN-caP,6.7 µM
same,GI50,[7]; SK-BR-3,851 nM
same,LC50,[7]; SK-BR-3,4.42 µM
same,TGI SK-BR-3,[7]; SK-BR-3,1.94E−06 Molar
same,GI50,[8]; IGROV,1450 nM
same,LC50 (concentration causing 50% net cell killing),[8]; IGROV,5.24 µM
same,TGI IGROV,[8]; IGROV,2.76E−06 Molar
same,GI50,[9]; IGROV-ET,1850 nM
same,TGI IGROV-ET,[9]; IGROV-ET,3.74E−06 Molar
same,CC50,[9]; IGROV-ET,6.7 µM
same,GI50,[10]; HELA,1570 nM
same,TGI HELA,[10]; HELA,3.30E−06 Molar
same,CC50,[10]; HELA,6.7 µM
same,GI50,[11]; HELA-APL,1860 nM
same,TGI HELA-APL,[11]; HELA-APL,4.15E−06 Molar
same,CC50,[11]; HELA-APL,6.7 µM
same,GI50,[12]; K-562,1.6 µM
same,TGI K-562,[12]; K-562,3.92E−06 Molar
same,CC50,[12]; K-562,6.7 µM
same,GI50,[13]; PANC-1,2.09 µM
same,TGI PANC-1,[13]; PANC-1,4.74E−06 Molar
same,CC50,[13]; PANC-1,6.7 µM
"C/C=C1\NC(=O)[C@H](Cc2ccccc2)NC(=O)[C@@H](C(C)C)NC(=O)[C@@H]([C@@H](C)CC)NC(=O)[C@H](NC(=O)[C@H](NC(=O)[C@H](CCCN)NC(=O)[C@H]2CCCN2C(=O)[C@H](NC(=O)[C@@H](NC(=O)[C@@H](NC(=O)[C@H](NC(=O)Cc2cc(F)cc(F)c2)C(C)C)[C@@H](C)O)C(C)C)C(C)C)[C@@H](C)CC)[C@@H](C)OC(=O)[C@H](C(C)C)NC1=O [Compound 22, [3,5-dFPhAc^14]-KF]",TGI A-549,[1],2.16E−06 Molar
same,GI50,[1],1170 nM
same,CC50,[1],3.99 µM
same,GI50,[2],2500 nM
same,TGI MEL-28,[2],6.58E−06 Molar
same,CC50,[2],6.58 µM
same,TGI HT-29,[3],1.94E−06 Molar
same,GI50,[3],888 nM
same,CC50,[3],4.25 µM
same,GI50,[14],288 nM
same,TGI LOVO,[14],1.06E−06 Molar
same,CC50,[14]; read-out: LC50 LOVO,3.11 µM
same,GI50,[5],1430 nM
same,LC50 (concentration causing 50% net cell kill),[5],6.58 µM
same,TGI DU-145,[5],6.58E−06 Molar
same,TGI LN-caP,[6],6.58E−06 Molar
same,GI50,[6]; read-out: GI50 LN-caP,1640 nM
same,CC50,[6],6.58 µM
same,GI50,[7],464 nM
same,LC50,[7],3.64 µM
same,TGI SK-BR-3,[7],1.45E−06 Molar
same,GI50,[8],980 nM
same,LC50 (concentration causing 50% net cell killing),[8],4.57 µM
same,TGI IGROV,[8],2.12E−06 Molar
same,GI50,[9],1070 nM
same,TGI IGROV-ET,[9],2.32E−06 Molar
same,CC50,[9],5.01 µM
same,GI50,[10],1290 nM
same,TGI HELA,[10],3.28E−06 Molar
same,CC50,[10],6.58 µM
same,GI50,[11],1960 nM
same,TGI HELA-APL,[11],6.58E−06 Molar
same,CC50,[11],6.58 µM
same,GI50,[12],6.58 µM
same,TGI K-562,[12],6.58E−06 Molar
same,CC50,[12],6.58 µM
same,GI50,[13],5.45 µM
same,TGI PANC-1,[13],6.58E−06 Molar
same,CC50,[13],6.58 µM
